In the NIST ThermoML archive (doi:10.1021/acs.jced.7b00221):

Key:
[1] = 100 kPa, Liquid; for mass density: Vibrating tube method; for viscosity: Cone and plate viscometry
[2] = xn = mol fraction of the nth substance listed; conditions: 100 kPa, Liquid, Cone and plate viscometry

CCCCCC[n+]1ccn(C)c1.O=S(=O)([N-]S(=O)(=O)C(F)(F)F)C(F)(F)F
[1]
Conditions	mass density [kg/m3]
283.15 K	1385.6
288.15 K	1381
293.15 K	1376.5
295.15 K	1374.6
298.15 K	1371.9
303.15 K	1367.3
308.15 K	1362.8
313.15 K	1358.3
318.15 K	1353.7
323.15 K	1349.2
328.15 K	1344.7
333.15 K	1340.3
338.15 K	1335.8
343.15 K	1331.4
348.15 K	1326.9
353.15 K	1322.5

CCCCCCn1cc[n+](C)c1C.O=S(=O)([N-]S(=O)(=O)C(F)(F)F)C(F)(F)F
[1]
Conditions	mass density [kg/m3]
283.15 K	1373
288.15 K	1368.4
293.15 K	1363.9
295.15 K	1362.1
298.15 K	1359.5
303.15 K	1355.1
308.15 K	1350.8
313.15 K	1346.4
318.15 K	1342
323.15 K	1337.6
328.15 K	1333.2
333.15 K	1328.9
338.15 K	1324.5
343.15 K	1320.2
348.15 K	1315.8
353.15 K	1311.5

CCCC[n+]1ccn(C)c1.O=S(=O)([N-]S(=O)(=O)C(F)(F)F)C(F)(F)F
[1]
Conditions	mass density [kg/m3]	viscosity [mPa·s]
278.15 K	–	138
283.15 K	1451.1	104
288.15 K	1446.3	80
293.15 K	1441.5	63
295.15 K	1439.6	–
298.15 K	1436.8	51
303.15 K	1432	–
308.15 K	1427.3	–
313.15 K	1422.7	–
318.15 K	1418	–
323.15 K	1413.3	–
328.15 K	1408.7	–
333.15 K	1404.1	–
338.15 K	1399.4	–
343.15 K	1394.8	–
348.15 K	1390.2	–
353.15 K	1385.7	–

CC[P+](CC)(CC)COCCOC.O=S(=O)([N-]S(=O)(=O)C(F)(F)F)C(F)(F)F
[1]
Conditions	viscosity [mPa·s]
278.15 K	84
283.15 K	65
288.15 K	51

CCn1cc[n+](C)c1.O=S(=O)([N-]S(=O)(=O)C(F)(F)F)C(F)(F)F
[1]
Conditions	mass density [kg/m3]	viscosity [mPa·s]
278.15 K	–	80
283.15 K	1534.1	63
288.15 K	1529	50
293.15 K	1523.9	–
295.15 K	1521.9	–
298.15 K	1518.9	–
303.15 K	1513.9	–
308.15 K	1508.9	–
313.15 K	1503.9	–
318.15 K	1499	–
323.15 K	1494.1	–
328.15 K	1489.1	–
333.15 K	1484.2	–
338.15 K	1479.3	–
343.15 K	1474.4	–
348.15 K	1469.6	–
353.15 K	1464.7	–

CCCCCCn1cc[n+](C)c1.N#Cc1ccc[n-]1 [1-hexyl-3-methylimidazolium 2-cyanopyrrolide]
[1]
Conditions	viscosity [mPa·s]
278.15 K	1540
283.15 K	902
288.15 K	553
293.15 K	355
298.15 K	239
303.15 K	167
308.15 K	122
313.15 K	91
318.15 K	70
323.15 K	55

CCCCCCC[P+](CC)(CC)CC.O=[N+]([O-])c1cn[n-]c1 [triethylheptylphosphonium 4-nitropyrazolide] + CC[P+](CC)(CC)COCCOC.O=S(=O)([N-]S(=O)(=O)C(F)(F)F)C(F)(F)F
viscosity [mPa·s], [2]
Conditions	278.15 K	283.15 K	288.15 K	293.15 K	298.15 K	303.15 K	308.15 K	313.15 K	318.15 K	323.15 K
x1 = 0.101	103	80	62	50	–	–	–	–	–	–
x1 = 0.248	135	101	78	61	50	–	–	–	–	–
x1 = 0.5	234	170	126	96	75	59	–	–	–	–
x1 = 0.75	474	328	231	168	126	97	76	61	50	–
x1 = 0.901	761	510	350	249	182	137	105	84	66	54

CCCCCCCC[P+](CC)(CC)CC.O=[N+]([O-])c1cn[n-]c1 [triethyloctylphosphonium 4-nitropyrazolide]
[1]
Conditions	mass density [kg/m3]
283.15 K	1040.7
288.15 K	1037.7
293.15 K	1034.6
295.15 K	1033.4
298.15 K	1031.5
303.15 K	1028.5
308.15 K	1025.5
313.15 K	1022.6
318.15 K	1019.6
323.15 K	1016.7
328.15 K	1013.8
333.15 K	1010.8
338.15 K	1007.9
343.15 K	1005
348.15 K	1002.1
353.15 K	999.2

CCCCCCCCCCCCCC[P+](CCCCCC)(CCCCCC)CCCCCC.N#Cc1ccc[n-]1 [trihexyl(tetradecyl)phosphonium 2-cyanopyrrolide]
[1]
Conditions	viscosity [mPa·s]
278.15 K	1764
283.15 K	1179
288.15 K	804
293.15 K	563
298.15 K	404
303.15 K	297
308.15 K	223
313.15 K	170
318.15 K	133
323.15 K	106

CCCCCCCCCCCCCC[P+](CCCCCC)(CCCCCC)CCCCCC.O=[N+]([O-])c1cn[n-]c1 [trihexyl(tetradecyl)phosphonium 4-nitropyrazolide] + CCCCCC[n+]1ccn(C)c1.O=S(=O)([N-]S(=O)(=O)C(F)(F)F)C(F)(F)F
viscosity [mPa·s], [2]
Conditions	278.15 K	283.15 K	288.15 K	293.15 K	298.15 K	303.15 K	308.15 K	313.15 K	318.15 K	323.15 K
x1 = 0.099	338	241	175	132	101	80	65	52	–	–
x1 = 0.2	528	367	261	191	144	111	88	70	57	–
x1 = 0.3	831	565	393	282	208	158	122	97	78	64
x1 = 0.501	1594	1055	715	499	357	264	199	153	120	96
x1 = 0.695	2474	1600	1061	726	512	371	276	209	162	128
x1 = 0.797	2704	1750	1158	788	554	400	296	222	171	134
x1 = 0.898	3071	1971	1297	880	614	441	325	244	187	146
